pIC50: −log10 of the molar value. Several values for one entry are separate records, joined by “and”; a condition that tells them apart may be missing. Equal values may be shown once. Where only a bound is given, the exact number is not on record here.

The first test concerns the target T1, SCD1 (Homo sapiens, UniProt O00767).
T1 construct: host or cells: S. cerevisiae ole1Δ strain, plasmid pRS316 with TDH3 promoter and CYC1 terminator
T1 sequence (O00767 1-359): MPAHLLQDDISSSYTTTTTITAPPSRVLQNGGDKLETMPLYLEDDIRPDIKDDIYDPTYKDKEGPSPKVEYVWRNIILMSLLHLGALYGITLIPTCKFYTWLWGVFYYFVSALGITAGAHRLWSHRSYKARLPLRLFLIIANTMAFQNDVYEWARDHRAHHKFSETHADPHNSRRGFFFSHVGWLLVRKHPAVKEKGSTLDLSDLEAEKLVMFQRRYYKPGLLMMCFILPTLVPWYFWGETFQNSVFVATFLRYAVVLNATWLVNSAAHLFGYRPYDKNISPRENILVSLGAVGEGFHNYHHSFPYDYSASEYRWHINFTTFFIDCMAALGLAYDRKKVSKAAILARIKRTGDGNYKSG
Kind of test: Growth inhibition of humanized yeast expressing SCD1 as sole desaturase. It counts as cell-based. As to conditions: growth of humanized yeast strain expressing human SCD1. As for the experimental part:
(§1) Strain ole1Δ (yeast ole1 deletion mutant) was constructed by deleting OLE1 with NAT-MX6 in BY4741, amplifying the deletion cassette from the genomic DNA of the resulting strain with primers flanking the ORF by 1000 bp upstream and downstream, transforming the resulting deletion cassette into W303 pdr1Δ pdr3Δ, and plating transformants on YPD media containing G418 (200 μg/mL) and nourseothricin (100 μg/mL) with 0.01% TWEEN®-20 and 0.5 mM oleic and palmitoleic acids.
(§2) The coding sequence of yeast OLE1 was also cloned into this plasmid). These clones were then transformed into the ole1Δ strain and plated on CSM-Ura media (CSM lacking uracil) with 2% glucose (w/v) and independent colonies were isolated and amplified.
(§3) All compound profiling experiments were performed using the same basic protocol. Different genetic backgrounds (e.g., gene deletions) or conditions (e.g., addition of oleic and palmitoleic acid) were replaced as indicated below.
(§4) Yeast were cultured using standard techniques in complete synthetic media (CSM) and yeast nitrogen base supplemented with 2% (w/v) carbon source (glucose, raffinose, or galactose) to regulate the expression of the toxic disease protein. An initial starter culture was inoculated in 3 mL CSM-Glucose media and incubated overnight in a 30° C. shaker incubator (225 rpm). Saturated morning cultures were then diluted 1:20 in fresh CSM-Raffinose media and grown for 6 h to an OD600 (optical density) of ˜0.4-0.8 at 30° C. with shaking.
(§5) Compound administration was performed in two separate steps. First, 15 μL of CSM-Galactose (induces expression of toxic protein) was dispensed into clear 384 well assay plates using a MULTIDROP™ Combi reagent dispenser. […] The cultures described above were then diluted to a 2× concentration (0.03 and 0.08 for alpha-synuclein and ApoE, final OD600 of 0.015 and 0.04) in CSM-Galactose. For wild-type and Ole1/SCD1/SCD5 plasmid-containing strains, the 2× cell density was 0.02. […] For 96-well assays (FIGS. 1A and 1B), compound dilutions in DMSO were generated in 96 well plates and 1 μL was manually pipetted into 96 well clear bottom assay plates.
(§6) For experiments using a plasmid-borne copy of Ole1, SCD1, or SCD5 (FIGS. 3B, 6, and 7), media lacking uracil (SX-Ura, where X is glucose, raffinose, or galactose), was used for all steps of the compound profiling protocol to ensure its maintenance throughout the assay.
(§7) After yeast delivery, assay plates were incubated under humidified conditions at 30° C. for 24 to 40 h. ApoE4 rescue experiments were stopped at 24 h, aSyn experiments at 40 h, Ole1 at 24 h, and SCD1/SCD5 at 40 h. The growth of yeast was monitored by reading the OD600 of each well using a microplate reader (Perkin Elmer EnVision™).
In turn, `CC(C)n1ncc2ccc(N3CC4(CCN(C(=O)OC(C)(C)C)CC4)C3)cc21` [Compound 663] showed a negative-log IC50 (pIC50) of less than 4.35.

The same test, now with this note: humanized yeast expressing SCD1.
Regarding `Cc1ccc(-c2nc(C3CCN(C(=O)C4CC(=O)N(c5ccc(C)c(C)c5)C4)CC3)no2)cc1` (stereo not drawn) [Compound 50], the negative logarithm of the IC50 (pIC50) was 4.39. `CCNCc1nc(-c2ccc3c(c2)N(CC)C(=O)CO3)no1` [Compound 493] had a pIC50 of less than 4.35. Compound `COc1ccc(-c2noc(CCNC(=O)CNC(=O)c3ccccc3)n2)cc1OC` [Compound 484] showed a pIC50 of less than 4.35.

With `O=C(CNC(=O)c1ccccc1)NCCc1nc(-c2ccccc2)no1` [Compound 485], the pIC50 was less than 4.35. `CC(C)n1ncc2cc(-c3noc(C4CCN(C(=O)CNC(=O)c5ccccc5)CC4)n3)ccc21` [Compound 228] showed a pIC50 of 4.39. The same measure, in the same setting: under `CC1(C)CC(=O)c2c(O)cc(OCC(=O)NCCc3nc(-c4ccccc4)no3)cc2O1` [Compound 487] stands less than 4.35; under `Cn1c(=O)n(C)c2cc(-c3noc(C4CCN(C(=O)[C@@H](CO)NC(=O)c5ccccc5)CC4)n3)ccc21` [Compound 214], 4.39.

The same test, now with this note: humanized yeast expressing human SCD1.
Compound `CC(C)n1ncc2ccc(N3CC4(CCN(C(=O)OC(C)(C)C)CC4)C3)cc21` [Compound 511] had a pIC50 of less than 4.35. The same measure, in the same setting: in the case of `CC(C)n1ncc2ccc(-c3noc(C4CCNCC4)n3)cc21` [Compound 500] it was less than 4.35. On the same count and under the same terms, in the case of `CC(C)n1ncc2ccc(-c3noc([C@H]4CC[C@@H](N)CC4)n3)cc21` [Compound 536] it was less than 4.35; in that of `CC(C)c1ccc(C(=O)N2CCC(c3nc(N4CC5(COC5)C4)no3)CC2)cc1` [Compound 337], less than 4.35; in that of `COc1cc(-c2noc(C3CCN(C(=O)CNC(=O)c4ccccc4)CC3)n2)ccc1OC(F)(F)F` [Compound 253], less than 4.35. The same measure, in the same setting: in the case of `O=C([C@H]1CC(=O)N(c2ccccc2)C1)N1CCC(c2nc(-c3ccc(Br)s3)no2)CC1` [Compound 248] it was less than 4.35; in that of `CC(C)n1ncc2ccc(-c3noc(C4CCN(C(=O)c5cscn5)CC4)n3)cc21` [Compound 573], less than 4.35. `Cc1nn(C)c2cc(-c3noc(N4CCN(C(=O)c5ccccc5Cl)CC4)n3)ccc12` [Compound 262] had a pIC50 of less than 4.35. Same read-out and setting: in the case of `N#Cc1ccc(-c2noc(C3CCN(C(=O)[C@H]4CC(=O)N(c5ccccc5)C4)CC3)n2)s1` [Compound 247] it was less than 4.35; in that of `Cc1nn(C)c2cc(-c3noc(N4CCN(C(=O)c5cc(F)ccc5Cl)CC4)n3)ccc12` [Compound 278], less than 4.35; in that of `CC(C)n1ncc2ccc(-c3nc(C4CCN(C(=O)CC5(C)CC5)CC4)no3)cc21` [Compound 546], less than 4.35. In turn, `CCc1cnc(N2CCC(c3nc(-c4ccc5c(C)nn(C)c5c4)no3)CC2)cn1` [Compound 560] showed a negative-log IC50 (pIC50) of less than 4.35.

Consider `CC(C)n1ncc2ccc(-c3noc(C4=C(F)CN(C(=O)OC(C)(C)C)CC4)n3)cc21` [Compound 510], for which the pIC50 was less than 4.35. In turn, `CC1(CC(=O)N2CCC(c3nc(-c4ccc5cnn(C6COC6)c5c4)no3)CC2)CC1` [Compound 559] showed a negative logarithm of the IC50 (pIC50) of less than 4.35.

`CNC(=O)c1ccc(-c2noc(C3CCN(C(=O)[C@H]4CC(=O)N(c5ccccc5)C4)CC3)n2)cn1` [Compound 252]: the negative logarithm of the IC50 (pIC50) is less than 4.35.

`Cc1nn(C)c2cc(-c3noc(C4CCN(c5nc(C(C)C)no5)CC4)n3)ccc12` [Compound 581] showed a pIC50 of less than 4.35.

The compound `O=C(c1ccccc1)N1CCC(c2nc(-c3ccc4cnn(C5COC5)c4c3)no2)CC1` [Compound 564] gave a negative logarithm of the IC50 (pIC50) of less than 4.35. Same read-out and setting: in the case of `CC(C)n1ncc2ccc(-c3noc(C4CCN(C(=O)c5ccc(Cl)cc5)CC4)n3)cc21` [Compound 363] it was less than 4.35. Still for that read-out and setting: under `COC(=O)N1CCC2(CC1)CN(c1nc(-c3ccc4cnn(C(C)C)c4c3)no1)C2` [Compound 570] stands less than 4.35; under `O=C(c1ccccc1)N1CCC(c2nc(N3CC4(COC4)C3)no2)CC1` [Compound 334], less than 4.35. On the same count and under the same terms, under `Cc1noc2cc(-c3noc(C4CCN(C(=O)CC5(C)CC5)CC4)n3)ccc12` [Compound 591] stands less than 4.35. On to `CC(C)OC(=O)N1CCC(c2nc(-c3ccc4oc(=O)n(C(C)C)c4c3)no2)CC1` [Compound 507], for which the negative-log IC50 (pIC50) is less than 4.35. On the same count and under the same terms, under `CC(C)n1ncc2ccc(-c3nc(C4CCN(C(=O)c5ccccn5)CC4)no3)cc21` [Compound 499] stands less than 4.35; under `Cc1nn(C)c2cc(-c3noc(C4CCN(C(=O)c5ccc(C(C)C)cc5)CC4)n3)ccc12` [Compound 290], less than 4.35; under `Cc1nn(C)c2cc(-c3noc(C4CCN(C(=O)COc5ccccc5)CC4)n3)ccc12` [Compound 266], less than 4.35. Same read-out and setting: in the case of `CC(C)n1ncc2ccc(-c3noc(C4CCN(C(=O)[C@@H]5CC(=O)N(c6cccc(C#N)c6)C5)CC4)n3)cc21` [Compound 528] it was less than 4.35; in that of `CC(C)n1ncc2ccc(-c3noc(C4CCN(S(=O)(=O)c5ccccc5Cl)CC4)n3)cc21` [Compound 540], less than 4.35. Compound `CC(C)n1ncc2ccc(-c3noc([C@H]4CC[C@H](NC(=O)OC(C)(C)C)CC4)n3)cc21` [Compound 537] had a negative logarithm of the IC50 (pIC50) of less than 4.35.

The test is the same for the next values; noted with them: humanized yeast strain, 40 h.
Compound `COCC(C)(C)n1ncc2ccc(-c3noc(C4CCN(C(=O)OC(C)(C)C)CC4)n3)cc21` [Compound 788] gave a negative logarithm of the IC50 (pIC50) of less than 4.35. The same measure, in the same setting: under `COC(=O)C1CCCN(c2noc(-c3ccc4cnn(C5COC5)c4c3)n2)CC1` (stereo not drawn) [Compound 857] stands less than 4.35; under `CC(C)(C)OC(=O)N1CCN(c2noc(-c3ccc4cnn(C5COC5)c4c3)n2)CC1` [Compound 750], 5.49. Still for that read-out and setting: under `CC(=O)N1CC(n2cc3ccc(-c4nc(C5CCN(C(=O)OC(C)(C)C)CC5)no4)cc3n2)C1` [Compound 862] stands 4.47.

The target of the next test is T2, SCD5 (Homo sapiens, UniProt Q86SK9).
T2 construct: host or cells: S. cerevisiae ole1Δ strain, plasmid pRS316 with TDH3 promoter and CYC1 terminator
T2 sequence (Q86SK9 1-330): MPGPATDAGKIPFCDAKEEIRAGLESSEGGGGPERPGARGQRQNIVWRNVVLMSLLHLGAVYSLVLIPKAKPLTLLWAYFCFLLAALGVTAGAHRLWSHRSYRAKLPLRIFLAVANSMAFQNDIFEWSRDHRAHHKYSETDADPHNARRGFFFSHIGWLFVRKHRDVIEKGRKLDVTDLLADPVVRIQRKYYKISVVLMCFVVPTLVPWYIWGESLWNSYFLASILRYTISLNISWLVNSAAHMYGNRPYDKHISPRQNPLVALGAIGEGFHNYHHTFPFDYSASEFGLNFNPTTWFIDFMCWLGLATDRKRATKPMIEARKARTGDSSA
As to the kind of experiment: Growth inhibition of humanized yeast expressing SCD5 as sole desaturase. The following applies: growth of humanized yeast strain expressing human SCD5. It counts as cell-based. The procedure: as §1, §2, §3, §4, §5, §6, §7
`CC(C)n1ncc2ccc(N3CC4(CCN(C(=O)OC(C)(C)C)CC4)C3)cc21` [Compound 663] showed a pIC50 of 8.00.

Still in this test, the particulars now being: humanized yeast expressing SCD5.
Take `Cc1nn(C)c2cc(-c3nc(C4CCN(C(=O)OC(C)(C)C)CC4)no3)ccc12` [Compound 319]: the “SCD5 % Max Inhibition” value was 4.96% and 10.94%.

The same test, now with this note: humanized yeast expressing human SCD5.
`CC(C)n1ncc2ccc(-c3noc(N4CCN(C(=O)OC5CC5)CC4)n3)cc21` [Compound 496] had a negative logarithm of the IC50 (pIC50) of 6.35.

Turning to `CC(C)n1ncc2ccc(N3CC4(CCN(C(=O)OC(C)(C)C)CC4)C3)cc21` [Compound 511], the pIC50 was 5.47. Same read-out and setting: under `CC(C)n1ncc2ccc(-c3noc(C4CCNCC4)n3)cc21` [Compound 500] stands less than 4.35; under `CC(C)n1ncc2ccc(-c3nc(C4CCN(C(=O)c5cccc(F)c5)CC4)no3)cc21` [Compound 547], 4.35. Still for that read-out and setting: under `O=C([C@H]1CC(=O)N(c2ccccc2)C1)N1CCC(c2nc(N3CC4(COC4)C3)no2)CC1` [Compound 316] stands no more than 4.35; under `O=C(C1CC(=O)N(c2cccc(Cl)c2)C1)N1CCC(c2nc(Cl)no2)CC1` (stereo not drawn) [Compound 348], no more than 4.35; under `O=C(c1ccccc1)N1CCC(c2nc(Cl)no2)CC1` [Compound 351], no more than 4.35. In turn, `N#Cc1cccc(N2CC(C(=O)N3CCC(c4nc(Cl)no4)CC3)CC2=O)c1` (stereo not drawn) [Compound 350] gave a pIC50 of no more than 4.35.

The same test, now with this note: humanized yeast strain, 40 h.
For the compound `COCC(C)(C)n1ncc2ccc(-c3noc(C4CCN(C(=O)OC(C)(C)C)CC4)n3)cc21` [Compound 788], the negative-log IC50 (pIC50) was 5.21. Consider `COC(=O)C1CCCN(c2noc(-c3ccc4cnn(C5COC5)c4c3)n2)CC1` (stereo not drawn) [Compound 857], for which the negative-log IC50 (pIC50) is 4.57. On the same count and under the same terms, under `CC(C)(C)OC(=O)N1CCN(c2noc(-c3ccc4cnn(C5COC5)c4c3)n2)CC1` [Compound 750] stands 8.00; under `CC(=O)N1CC(n2cc3ccc(-c4nc(C5CCN(C(=O)OC(C)(C)C)CC5)no4)cc3n2)C1` [Compound 862], 8.00.

As usually defined, the pIC50 is −log10 of the IC50, conventionally taken in molar units.

Source of the values: patent US20240400546A1, “COMPOUNDS AND USES THEREOF” (JANSSEN PHARMACEUTICA NV, priority 2016, published 2024).
